Entries after “also recorded” stand apart in the source; their conditions may differ.
Tests used:
[1] = test system: Bovine aortic smooth muscle cells (BASMC); settings: literature (Yang et al); cited from earlier work
[2] = test system: human mesenchymal stem cells (hMSC); experiment: hMSC proliferation, viable cell count (GUAVA Viacount) in maintenance medium; type: cell-based; settings: normal growth medium; data not shown
Experimental: (§1) Human mesenchymal stem cells (hMSCs) (Cambrex, USA) were plated in maintenance medium consisting of DMEM (1000 mg/L glucose), 10% fetal calf serum (FCS), 2 mM L-glutamine and 100 U/ml penicillin-streptomycin sulfate at 37° C. in a humidified atmosphere with 5% CO2. To assess their proliferation, assays were performed to determine cell number utilizing the GUAVA PCA-96 System (GUAVA Technologies) as per the manufacturer's instructions. Briefly, cells were seeded at 3,000 cells/cm^2 in 48-well plates and allowed to adhere overnight. […] Proliferation of cells was assessed by Guava viacount on 1, 3, 5 and 7 day to determine the total viable cells. Cells were washed in PBS, pelleted with 0.125% trypsin, the trypsin neutralized, the pellet resuspended in 400 μl of PBS with the addition of 4 μl of Flex reagent, incubated for 10 min and cell number and viability determined utilizing the GUAVA Viacount software.
Human mesenchymal stem cells (hMSCs) were plated in maintenance medium consisting of DMEM (1000 mg/L glucose), 10% fetal calf serum (FCS), 2 mM L-glutamine and 100 U/ml penicillin-streptomycin sulfate at 37° C. in a humidified atmosphere with 5% CO2. To assess their proliferation, assays were performed to determine cell number utilizing the GUAVA PCA-96 System (Millipore, USA) as per the manufacturer's instructions.
Briefly, cells were seeded at 3,000 cells/cm^2 in 48-well plates and allowed to adhere overnight. […] Proliferation of cells was assessed on days 1, 3, 5 and 7 to determine total viable cells. Cells were washed in PBS, pelleted with 0.125% trypsin, the trypsin neutralized, the pellet resuspended in 400 μl of PBS with the addition of 4 μl of Flex reagent, incubated for 10 min and cell number and viability determined utilizing the GUAVA Viacount software.

[3] = test system: human mesenchymal stem cells (hMSC); experiment: hMSC proliferation, viable cell count in osteogenic medium; type: cell-based; settings: data not shown
Experimental: (§2) FIG. 5. Effect of male and female liver HS on the growth of hMSC in maintenance and osteogenic medium. Cells were cultured for 7 days in normal maintenance medium in the presence of different concentrations (12.5 μg/ml or 1.25 μg/ml or 625 ng/ml or 312 ng/ml or 156 ng/ml) of male liver HS (A), and female liver HS (B). Cells were cultured for 7 days in osteogenic medium in the presence of different concentrations (12.5 μg/ml or 625 ng/ml or 312 ng/ml) of male liver HS (C), and female liver HS (D). Viable cell counts were determined at day 1, 3, 5 and 7. (E) The importance of FGFR signaling for HS activity was investigated by supplementing serum starved sub confluence cultures with male or female. HS (2.5 μg/ml) or FGF2 (2.5 ng/ml) in the presence or absence of an FGFR1 inhibitor (SU5402 at 20 μM) for 60 min. Total protein was extracted for Western blotting and first probed for activated ERK1/2 expression (pERK1/2). Membranes were then striped and reprobed with anti ERK1/2 antibody. (F) The amount of pERK1/2 protein was determined by densitometry. […]
as §1, with “CO2.” for “CO2. To assess their proliferation, assays were performed to determine cell number utilizing the GUAVA PCA-96 System (GUAVA Technologies) as per the manufacturer's instructions. Briefly, cells were seeded at 3,000 cells/cm^2 in 48-well plates and allowed to adhere overnight.”
To assess the possibility of structural differences identified between the male and female liver HS to modulate hMSC proliferation, hMSCs were treated with varying concentration of HS and viable cell number was counted over a 7-day culture period in normal maintenance or differentiation (osteogenic) medium.

hMSCs = experiment: hMSC proliferation with or without FGFR1 inhibitor SU5402, 5 days; type: cell-based, human
ERK1/2 = ERK1/2 phosphorylation in serum-starved hMSC (Western blot); type: cell-based, human; settings: SU5402 at 20 μM, 60 min, with male or female HS 2.5 μg/ml
Experimental: as §2
MSCs were seeded in designated media at 5,000/cm^2 in six-well plates and cultured until subconfluent. […] Protein content was determined using a Protein Assay Kit (Bio-Rad) following the manufacturer's instructions. […]

| Compound | effect on BASMC mineralization [1] | hMSC proliferation compared to 10% serum [2] | effect on hMSC proliferation [3] | also measured |
| --- | --- | --- | --- | --- |
| N-desulfated heparin | no inhibition; also recorded: no inhibitory activity |  |  |  |
| de-N-sulfated heparin |  | does not increase hMSC proliferation; also recorded: failed to improve hMSC proliferation | no effect; also recorded: neither de-N-sulfated, 2-de-O-sulfated nor 6-de-O-sulfated heparin had any effect |  |
| dermatan sulfate | no inhibition; also recorded: no inhibitory activity |  |  |  |
| 2-de-O-sulfated heparin |  | less effect on proliferation | no effect; also recorded: neither de-N-sulfated, 2-de-O-sulfated nor 6-de-O-sulfated heparin had any effect |  |
| heparin [highly sulfated heparin] | inhibited |  |  |  |
| 6-de-O-sulfated heparin |  | less effect on proliferation | no effect; also recorded: neither de-N-sulfated, 2-de-O-sulfated nor 6-de-O-sulfated heparin had any effect |  |
| FGF2 |  |  |  | effect on hMSC proliferation (hMSCs; FGF2 2.5 ng/ml): induced proliferation |
| Cc1c[nH]c(/C=C2\C(=O)Nc3ccccc32)c1CCC(=O)O [SU5402] |  |  |  | effect on liver HS-stimulated ERK1/2 phosphorylation (ERK1/2): blocked; effect on basal growth of hMSCs (hMSCs; SU5402 at 20 μM): inhibitory effect; effect on HS and FGF2 induced proliferation (hMSCs; SU5402 at 20 μM, male HS 2.5 μg/ml or FGF2 2.5 ng/ml): preventing HS and FGF2 induced proliferation |

— patent US9359452B2, “Isolation and characterisation of heparan sulphates and their use in pharmaceutical compositions, methods of treatment and stem cell culture media suitable for conditions associated with bone repair” (Agency for Science, Technology and Research, priority 2009, dated 2016)
